Results on 18 compounds are retold here after patent US20260070902A1, “SULFONYL DERIVATIVES AS CCR6 INHIBITORS” (Hoffmann-La Roche Inc., priority 2022, published 2026).

Structures are written as SMILES.

Format in all cases: cell-based
For experiment [1], the target named is T1, human CCR6 (Homo sapiens, UniProt P51684).
T1 sequence (P51684 1-374): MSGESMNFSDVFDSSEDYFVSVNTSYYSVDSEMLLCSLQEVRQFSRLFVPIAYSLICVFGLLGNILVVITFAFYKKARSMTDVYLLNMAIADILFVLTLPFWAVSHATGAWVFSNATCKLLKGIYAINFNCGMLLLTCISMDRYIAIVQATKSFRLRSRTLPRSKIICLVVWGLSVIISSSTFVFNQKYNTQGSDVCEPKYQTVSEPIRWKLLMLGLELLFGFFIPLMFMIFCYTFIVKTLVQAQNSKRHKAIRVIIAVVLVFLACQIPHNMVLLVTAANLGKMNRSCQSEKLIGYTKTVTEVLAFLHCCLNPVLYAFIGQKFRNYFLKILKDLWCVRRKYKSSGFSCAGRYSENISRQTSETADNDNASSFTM
Description: CHO-K1 CCR6 chemotaxis assay towards CCL20. Conditions: relative -Log IC50; CHO-K1 cells overexpressing human CCR6; migration towards 100 ng/ml CCL20; 4 h. The method in brief: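 Human CCR6-overexpressing CHO-K1 cells (2*10^6 cells/ml) were preincubated 30 min at 37 °C with compound (0.2% DMSO), then allowed to migrate 4 h through 8 µm Transwell pores toward 100 ng/ml CCL20. Migrated cells were counted by CellTiter Glo. −Log IC50 came from four-parameter fits normalised to DMSO without/with CCL20.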

A further experiment concerns Human CD4+ T cells. Description: CD4+ T cells chemotaxis assay towards CCL20. Conditions: 3 h; for IC50: Homo sapiens, CD4+ T cell, relative -Log IC50, human CD4+ T cells stimulated with anti-CD3 and anti-CD28, migration towards 150 ng/ml CCL20; for CD4+ T-cell chemotaxis: relative -Log IC50, human CD4+ T cells stimulated with anti-CD3 and anti-CD28, migration towards 150 ng/ml CCL20. The source says:
CD4+ T Cells Chemotaxis Assay Towards CCL20
Human CD4+ T cells were isolated from buffy coats of healthy donors using a CD4+ T Cell Isolation Kit (Miltenyi Biotec130-096-533). Isolated T cells were stimulated overnight with anti-CD3 and anti-CD28 antibodies (Biolegend 300314/302934) in growth medium (RPMI1640, 10% heat-inactivated FBS, 1× pen/strep (Gibco 15140)). For the chemotaxis assay, Corning Transwell plates were used with a pore size of 5 m (Corning 3388). T cells were counted and diluted to 6*10^6 cells/ml in chemotaxis medium (RPMI1640, 1% BSA, pen/strep). Compounds were four-fold serially diluted in DMSO. Further dilutions were made in chemotaxis medium. Cells were incubated with test compounds for 30 min at 37° C. prior to initiation of the assay (3*10^6 cells/ml). Final DMSO concentration in the assay was 0.2%. Wells of the Transwell plates were filled with 200 μl chemotaxis medium containing 150 ng/ml CCL20 (R&D systems 360-MP). 50 μl of the cell/compound suspension was added to the inserts of the Transwell plates (150,000 cells/insert). The Transwell plates were placed in an incubator at 37° C., 5% CO2 for 3 h. After 3 h, the number of migrated cells was quantified using CellTiter Glo (Promega). Percentage inhibition values were calculated based on the low and high signal obtained with 0.2% DMSO in chemotaxis medium without and with CCL20, respectively. The relative −Log IC50 was determined with GraphPad Prism 9 using a four-parameter dose-response model.

The target in experiment [2] is T1, human CCR6. Description: Human CCR6-CRE reporter assay. On the set-up: The second construct contained the open reading frame of human CCR6 in the pUNO1 backbone; host or cells: 293FT cells. The settings on record: relative -Log IC50; 293FT cells transfected with human CCR6 and CRE-luciferase reporter; 6 μM Forskolin, 6 nM CCL20; 5 h. The method in brief:
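293FT cells transiently co-transfected with human CCR6 and a CRE-luc2P reporter, used 48 h later. Compounds incubated with cells in medium containing 6 μM Forskolin and 6 nM CCL20 (assay-medium levels), 0.1% DMSO final, 5 h at 37° C; luminescence read, relative −Log IC50 from four-parameter fit.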

Consider `CC(C)c1nnc2ccc(-c3ccc(S(=O)(=O)[C@H]4CC[C@H](Nc5ccc(S(F)(F)(F)(F)F)cn5)CC4)cc3)cn12` [Example 178, 5-(pentafluoro-λ^6-sulfanyl)-N-[trans-4-{4-[3-(propan-2-yl)-[1,2,4]triazolo[4,3-a]pyridin-6-yl]benzenesulfonyl}cyclohexyl]pyridin-2-amine], for which the 50% inhibitory concentration (IC50) at human CCR6 [1] is 10 nM; in the experiment with Human CD4+ T cells, 0.794 nM; against human CCR6 [2], 63.1 nM.

On to `CC(C)c1nnc2cnc(-c3ccc(S(=O)(=O)[C@H]4CC[C@H](Nc5ccc(S(F)(F)(F)(F)F)cc5)CC4)cc3)cn12` [Example 51, 4-(pentafluoro-λ^6-sulfanyl)-N-[trans-4-{4-[3-(propan-2-yl)-[1,2,4]triazolo[4,3-a]pyrazin-6-yl]benzenesulfonyl}cyclohexyl]aniline], for which the half-maximal inhibitory concentration (IC50) on human CCR6 [1] is 7.94 nM; in the experiment with Human CD4+ T cells, 2 nM; against human CCR6 [2], 63.1 nM.

With `N=S(=O)(c1ccc(-c2ccnc(C(N)=O)c2)cc1)[C@H]1CC[C@H](Nc2ccc(S(F)(F)(F)(F)F)cc2)CC1` (stereo partly drawn) [Example 91, 4-(4-{[trans-4-{[4-(pentafluoro-λ^6-sulfanyl)phenyl]Amino}cyclohexyl]sulfonimidoyl}phenyl)pyridine-2-carboxamide], the concentration for half-maximal inhibition (IC50) with Human CD4+ T cells was 31.6 nM; on human CCR6 [2], 126 nM.

As for `N=S(=O)(c1ccc(-c2ccnc(C(N)=O)c2)cc1)N1CCC(Nc2ccc(S(F)(F)(F)(F)F)cc2)CC1` (centres unmarked) [Example 125, 4-{4-[(4-{[4-(pentafluoro-λ^6-sulfanyl)phenyl]Amino}piperidin-1-yl)sulfonimidoyl]phenyl}pyridine-2-carboxamide], the concentration for half-maximal inhibition (IC50) in the experiment on Human CD4+ T cells is 126 nM; at human CCR6 [2], 200 nM.

With `O=C1NCc2ccc(-c3ccc(S(=O)(=O)[C@H]4CC[C@H](Nc5ccc(S(F)(F)(F)(F)F)cc5)CC4)cc3)cc21` [Example 9, 6-(4-{[trans-4-{[4-(pentafluoro-λ^6-sulfanyl)phenyl]Amino}cyclohexyl]sulfonyl}phenyl)-2,3-dihydro-1H-isoindol-1-one], the IC50 is 10 nM with Human CD4+ T cells and 79.4 nM against human CCR6 [2].

On to `O=C1NC(=O)C2(CCN(c3ccc(S(=O)(=O)N4CCC(Nc5ccc(S(F)(F)(F)(F)F)cc5)CC4)cc3)CC2)N1` [Example 133, 8-{4-[(4-{[4-(pentafluoro-λ^6-sulfanyl)phenyl]amino}piperidin-1-yl)sulfonyl]phenyl}-1,3,8-triazaspiro[4.5]decane-2,4-dione], for which the results for the IC50 in the experiment with Human CD4+ T cells and at human CCR6 [2] were 3.98 nM and 39.8 nM, respectively.

`CC(C)c1nnc2ccc(-c3ccc(S(=N)(=O)[C@H]4CC[C@H](Nc5ccc(S(F)(F)(F)(F)F)cc5)CC4)cc3)cn12` (single isomer, unassigned; (+)) [Example 163, (+)-{4-[3-(propan-2-yl)-[1,2,4]triazolo[4,3-a]pyridin-6-yl]phenyl}[trans-4-{[4-(pentafluoro-λ^6-sulfanyl)phenyl]amino}cyclohexyl](imino)-λ^6-sulfanone]: the “CD4+ T-cell chemotaxis” value in the experiment on Human CD4+ T cells worked out at 7.8. Besides, the 50% inhibitory concentration (IC50) against human CCR6 [2] is 79.4 nM.

In the case of `O=S(=O)(c1ccc(-c2ccc3nnc([C@@H]4CCCN4)n3c2)cc1)[C@H]1CC[C@H](Nc2ccc(S(F)(F)(F)(F)F)cc2)CC1` [Example 161, 4-(pentafluoro-λ^6-sulfanyl)-N-[trans-4-(4-{3-[(2S)-pyrrolidin-2-yl]-[1,2,4]triazolo[4,3-a]pyridin-6-yl}benzenesulfonyl)cyclohexyl]aniline], the IC50 with Human CD4+ T cells is 7.94 nM; against human CCR6 [2] it was 79.4 nM.

`O=S(=O)(c1ccc(-c2ccc3nccn3c2)nc1)N1CCC(Nc2ccc(S(F)(F)(F)(F)F)cc2)CC1` [Example 77, 1-[(6-{imidazo[1,2-a]pyridin-6-yl}pyridin-3-yl)sulfonyl]-N-[4-(pentafluoro-λ^6-sulfanyl)phenyl]piperidin-4-amine]: the results for the 50% inhibitory concentration (IC50) in the experiment on Human CD4+ T cells and against human CCR6 [2] were 126 nM and 501 nM, respectively.

`O=S(=O)(c1ccc(-c2ccc3nccn3c2)cc1)[C@H]1CC[C@H](Nc2ccc(S(F)(F)(F)(F)F)cc2)CC1` [Example 12, 4-(pentafluoro-λ^6-sulfanyl)-N-[trans-4-(4-{imidazo[1,2-a]pyridin-6-yl}benzenesulfonyl)cyclohexyl]aniline]: the IC50 was 15.8 nM in the experiment with Human CD4+ T cells and 79.4 nM against human CCR6 [2].

`N#Cc1c[nH]c2ccc(-c3ccc(S(=O)(=O)N4CCC(Nc5ccc(S(F)(F)(F)(F)F)cc5)CC4)cc3)cc12` [Example 3, 5-{4-[(4-{[4-(pentafluoro-λ^6-sulfanyl)phenyl]Amino}piperidin-1-yl)sulfonyl]phenyl}-1H-indole-3-carbonitrile]: the IC50 in the experiment on Human CD4+ T cells was 15.8 nM; against human CCR6 [2], 50.1 nM.

On to `O=S(=O)(c1ccc(-c2ccc3nnc(C4CNC4)n3c2)cc1)[C@H]1CC[C@H](Nc2ccc(S(F)(F)(F)(F)F)cc2)CC1` [Example 168, 4-(pentafluoro-λ^6-sulfanyl)-N-[trans-4-{4-[3-(azetidin-3-yl)-[1,2,4]triazolo[4,3-a]pyridin-6-yl]benzenesulfonyl}cyclohexyl]aniline], for which the half-inhibitory concentration (IC50) in the experiment with Human CD4+ T cells is 100 nM; at human CCR6 [2] it was 251 nM.

As to `O=c1[nH]nc2ccc(-c3ccc(S(=O)(=O)N4CCC(Nc5ccc(S(F)(F)(F)(F)F)cc5)CC4)cc3)cn12` [Example 32, 6-{4-[(4-{[4-(pentafluoro-λ^6-sulfanyl)phenyl]Amino}piperidin-1-yl)sulfonyl]phenyl}-2H,3H-[1,2,4]triazolo[4,3-a]pyridin-3-one], the IC50 in the experiment on Human CD4+ T cells is 3.98 nM; at human CCR6 [2] it was 100 nM.

Consider `O=C1NC2(CCN(c3ccc(S(=O)(=O)N4CCC(Nc5ccc(S(F)(F)(F)(F)F)cc5)CC4)cc3)CC2)CO1` [Example 135, 8-{4-[(4-{[4-(pentafluoro-λ^6-sulfanyl)phenyl]amino}piperidin-1-yl)sulfonyl]phenyl}-3-oxa-1,8-diazaspiro[4.5]decan-2-one], for which the IC50 with Human CD4+ T cells was 25.1 nM; against human CCR6 [2] it was 126 nM.

Consider `Cc1[nH]nc2ccc(-c3ccc(S(=O)(=O)N4CCC(Nc5ccc(S(F)(F)(F)(F)F)cc5)CC4)cc3)cc12` [Example 2, 1-[4-(3-methyl-2H-indazol-5-yl)benzenesulfonyl]-N-[4-(pentafluoro-λ^6-sulfanyl)phenyl]piperidin-4-amine], for which the IC50 with Human CD4+ T cells is 5.01 nM; at human CCR6 [2], 63.1 nM.

As to `N#Cc1cc(-c2ccc(S(=O)(=O)[C@H]3CC[C@H](Nc4ccc(S(F)(F)(F)(F)F)cc4)CC3)cc2)cn2ccnc12` [Example 160, 6-(4-{[trans-4-{[4-(pentafluoro-λ^6-sulfanyl)phenyl]amino}cyclohexyl]sulfonyl}phenyl)imidazo[1,2-a]pyridine-8-carbonitrile], the IC50 with Human CD4+ T cells is 3.98 nM; against human CCR6 [2], 50.1 nM.

Take `N=S(=O)(c1ccc(-c2ccnc(C(N)=O)c2)cc1)[C@H]1CC[C@H](Nc2ccc(S(F)(F)(F)(F)F)cc2)CC1` (single isomer, unassigned; (-)) [Example 131, (−)-4-(4-{[trans-4-{[4-(pentafluoro-λ^6-sulfanyl)phenyl]Amino}cyclohexyl]sulfonimidoyl}phenyl)pyridine-2-carboxamide]: in the experiment on Human CD4+ T cells, the “CD4+ T-cell chemotaxis” value was 6.6. At human CCR6 [2], this compound had an IC50 of 316 nM.

In the case of `N#Cc1n[nH]c2ccc(-c3ccc(S(=O)(=O)N4CCC(Nc5ccc(S(F)(F)(F)(F)F)cc5)CC4)cc3)cc12` [Example 4, 5-{4-[(4-{[4-(pentafluoro-λ^6-sulfanyl)phenyl]Amino}piperidin-1-yl)sulfonyl]phenyl}-1H-indazole-3-carbonitrile], the values for the IC50 in the experiment with Human CD4+ T cells and against human CCR6 [2] were 0.794 nM and 50.1 nM, respectively.
